Test results as given in patent US20250082931A1, “Treating Gastric Cancer Using TTFields Combined with XELOX, FOLFOX or the Individual Constituents Thereof” (Novocure GmbH, priority 2019, published 2025).

Assays:
KATO III cells [1] = assay: Apoptosis analysis by Annexin V / 7AAD staining; format: cell-based; details: for AnnV+ 7AAD+ cell fraction / AnnV+ 7AAD− cell fraction / AnnV− 7AAD+ cell fraction / AnnV− 7AAD− cell fraction: 72 h
Method: (§1) After 72 h of treatment the media and the cells were collected, and cytotoxicity was determined by cell counts. Cells (including cells from the media) were stained for Annexin V and 7AAD for apoptosis analysis. For the testing of the clonogenic effect, cells were seeded for colonies.
(§2) Cells were seeded on inovitro dishes and petri dishes 24 h before starting the experiments. Media containing the indicated concentration of each chemotherapy component alone or FOLFOX and control media was added to the cells and the dishes were connected to TTFields (as in SOP-BI-009) or grown in 37° C., 5% CO2 for 72 h. Each treatment included 8 repeats (8 dishes). The media was replaced every 24 h. At the end of the experiment the cells were collected, and cytotoxicity was determined by cell counts, small number of cells were seeded for colonies and the cells (including cells from the media) were stained for Annexin V and 7AAD for apoptosis analysis.
(§3) Apoptotic effect: Average of cell fraction of each marker staining (Annexin V and 7AAD) of at least 5 dishes from each treatment was calculated in Excel software. The averages from these repeats was calculated to averages and is presented in stacked bar graph using GraphPed software.

KATO III cells [2] = assay: Overall effect (cytotoxic effect x clonogenic effect); details: low concentration
Method: (§4) After 6-14 days the colonies were fixed, stained and counted to determine clonogenic effect. The overall effect was calculated by multiplying the cytotoxic effect and the clonogenic effect.
Overall effect: Each colony number was multiply in the percent of cytotoxic effect of its dish and averages and standard deviations of each treatment were calculated in Excel software. […] Significant was determine by 2-way ANOVA followed Multiple comparison using GraphPed software.

KATO III cells [3] = assay: Cytotoxic effect by cell count after 72 h, with and without TTFields
AGS cells [4] = assay: Apoptosis analysis by Annexin V / 7AAD staining; format: cell-based; details: for AnnV+ 7AAD+ cell fraction / AnnV+ 7AAD− cell fraction / AnnV− 7AAD+ cell fraction / AnnV− 7AAD− cell fraction: 72 h
Method: as §1, §2, §3

AGS cells [5] = assay: Cytotoxic effect by cell count after 72 h, with and without TTFields
Method: During the treatment the media of all dishes was replaced every 24 h (“hours”).
After 72 h of treatment the media and the cells were collected, and cytotoxicity was determined by cell counts.
as §2
A TTFields generator (Inovitro systems) was used to apply the treatment to the cells.
Cytotoxic effect: Average and standard deviation of cell number of at least 5 dishes from each treatment was calculated in Excel software. The averages from these repeats was calculated to averages and standard error and is presented as percent from control (no drug treatment) in XY graph of points with error bars using GraphPed software. Significant was determine by 2-way ANOVA followed Multiple comparison using GraphPed software.

KATO III cells [6] = assay: Clonogenic effect (colonies count); details: for colonies count: 72 h;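 for all read-outs here: after treatment, KATO III cells were reseeded and grown 6–14 days, then colonies were fixed, stained and counted, expressed as percent of untreated (no drug) control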
Method: (§5) After 72 h of treatment the media and the cells were collected, and cytotoxicity was determined by cell counts. […] For the testing of the clonogenic effect, cells were seeded for colonies.
as §4
(§6) Clonogenic effect: The colonies from each well were counted using ImageJ software. Average and standard deviation of colony number of at least 5 wells from each treatment were calculated in excel software. The averages from these repeats was calculated to averages and standard errors and is presented as percent from control (no drug treatment) in XY graph of points with error bars using GraphPed software. Significant was determine by 2-way ANOVA followed Multiple comparison using GraphPed software.

AGS cells [7] = assay: Clonogenic effect (colonies count); format: cell-based; details: for colonies count: 72 h
Method: as §5, §4, §6

[8] = 50 nM, + TTFields 150 kHz 1.6 V/cm
[9] = 100 nM, + TTFields 150 kHz 1.6 V/cm
[10] = 200 nM, + TTFields 150 kHz 1.6 V/cm
[11] = 400 nM, + TTFields 150 kHz 1.6 V/cm
[12] = FOLFOX experiment, 50 nM, + TTFields 150 kHz 1.6 V/cm
[13] = FOLFOX experiment, 50 nM, no TTFields
[14] = 50 nM, + TTFields 150 kHz 1.0 V/cm
[15] = 100 nM, + TTFields 150 kHz 1.0 V/cm
[16] = 200 nM, + TTFields 150 kHz 1.0 V/cm
[17] = 400 nM, + TTFields 150 kHz 1.0 V/cm
[18] = 25 nuM, + TTFields 150 kHz 1.0 V/cm
[19] = FOLFOX experiment, 50 nM, + TTFields 150 kHz 1.0 V/cm
[20] = 25 nM, + TTFields 150 kHz 1.0 V/cm

## O=C1[O][Pt]2([NH][C@@H]3CCCC[C@H]3[NH]2)[O]C1=O [Oxaliplatin]
KATO III cells [1]
  elevation in percent of cells that undergo apoptosis, drug + TTFields compared to drug alone: higher
KATO III cells [1]; [8]
  AnnV+ 7AAD+ cell fraction: 16.12%
  AnnV+ 7AAD− cell fraction: 16.57%
  AnnV− 7AAD+ cell fraction: 1.31%
  AnnV− 7AAD− cell fraction: 66.01%
KATO III cells [1]; 50 nM, no TTFields
  AnnV+ 7AAD+ cell fraction: 6.09%
  AnnV+ 7AAD− cell fraction: 11.36%
  AnnV− 7AAD+ cell fraction: 1.30%
  AnnV− 7AAD− cell fraction: 81.25%
KATO III cells [1]; [9]
  AnnV+ 7AAD+ cell fraction: 14.83%
  AnnV+ 7AAD− cell fraction: 19.81%
  AnnV− 7AAD+ cell fraction: 0.72%
  AnnV− 7AAD− cell fraction: 64.63%
KATO III cells [1]; 100 nM, no TTFields
  AnnV+ 7AAD+ cell fraction: 6.42%
  AnnV+ 7AAD− cell fraction: 10.55%
  AnnV− 7AAD+ cell fraction: 1.32%
  AnnV− 7AAD− cell fraction: 81.71%
KATO III cells [1]; [10]
  AnnV+ 7AAD+ cell fraction: 19.97%
  AnnV+ 7AAD− cell fraction: 22.60%
  AnnV− 7AAD+ cell fraction: 0.86%
  AnnV− 7AAD− cell fraction: 56.57%
KATO III cells [1]; 200 nM, no TTFields
  AnnV+ 7AAD+ cell fraction: 8.42%
  AnnV+ 7AAD− cell fraction: 11.47%
  AnnV− 7AAD+ cell fraction: 1.01%
  AnnV− 7AAD− cell fraction: 79.10%
KATO III cells [1]; [11]
  AnnV+ 7AAD+ cell fraction: 21.45%
  AnnV+ 7AAD− cell fraction: 25.36%
  AnnV− 7AAD+ cell fraction: 0.65%
  AnnV− 7AAD− cell fraction: 52.54%
KATO III cells [1]; 400 nM, no TTFields
  AnnV+ 7AAD+ cell fraction: 11.24%
  AnnV+ 7AAD− cell fraction: 12.11%
  AnnV− 7AAD+ cell fraction: 1.42%
  AnnV− 7AAD− cell fraction: 75.23%
KATO III cells [1]; [12]
  AnnV+ 7AAD+ cell fraction: 27.60%
  AnnV+ 7AAD− cell fraction: 15.15%
  AnnV− 7AAD+ cell fraction: 1.32%
  AnnV− 7AAD− cell fraction: 55.94%
KATO III cells [1]; [13]
  AnnV+ 7AAD+ cell fraction: 18.07%
  AnnV+ 7AAD− cell fraction: 10.28%
  AnnV− 7AAD+ cell fraction: 1.12%
  AnnV− 7AAD− cell fraction: 70.54%
KATO III cells [2]
  additional clonogenic and overall effect over TTFields alone: no additional effect
KATO III cells [3]; [8]
  cell count: 48 % from control
KATO III cells [3]; 50 nM, no TTFields
  cell count: 82 % from control
KATO III cells [3]; [9]
  cell count: 46 % from control
KATO III cells [3]; 100 nM, no TTFields
  cell count: 75 % from control
KATO III cells [3]; [10]
  cell count: 30 % from control
KATO III cells [3]; 200 nM, no TTFields
  cell count: 64 % from control
KATO III cells [3]; [11]
  cell count: 24 % from control
KATO III cells [3]; 400 nM, no TTFields
  cell count: 39 % from control
KATO III cells [3]; 800 nM, + TTFields 150 kHz 1.6 V/cm
  cell count: 21 % from control
KATO III cells [3]; 800 nM, no TTFields
  cell count: 25 % from control
KATO III cells [3]; [12]
  cell count: 51 % from control
KATO III cells [3]; [13]
  cell count: 84 % from control
AGS cells [4]
  elevation in percent of cells that undergo apoptosis, drug + TTFields compared to drug alone: higher
AGS cells [4]; 25 nM, no TTFields
  AnnV+ 7AAD+ cell fraction: 4.00%
  AnnV+ 7AAD− cell fraction: 6.55%
  AnnV− 7AAD+ cell fraction: 1.35%
  AnnV− 7AAD− cell fraction: 88.10%
AGS cells [4]; [14]
  AnnV+ 7AAD+ cell fraction: 11.65%
  AnnV+ 7AAD− cell fraction: 8.40%
  AnnV− 7AAD+ cell fraction: 3.10%
  AnnV− 7AAD− cell fraction: 76.90%
AGS cells [4]; 50 nM, no TTFields
  AnnV+ 7AAD+ cell fraction: 4.83%
  AnnV+ 7AAD− cell fraction: 5.08%
  AnnV− 7AAD+ cell fraction: 2.08%
  AnnV− 7AAD− cell fraction: 88.00%
AGS cells [4]; [15]
  AnnV+ 7AAD+ cell fraction: 12.78%
  AnnV+ 7AAD− cell fraction: 9.78%
  AnnV− 7AAD+ cell fraction: 2.23%
  AnnV− 7AAD− cell fraction: 75.20%
AGS cells [4]; 100 nM, no TTFields
  AnnV+ 7AAD+ cell fraction: 7.00%
  AnnV+ 7AAD− cell fraction: 6.45%
  AnnV− 7AAD+ cell fraction: 1.63%
  AnnV− 7AAD− cell fraction: 84.93%
AGS cells [4]; [16]
  AnnV+ 7AAD+ cell fraction: 14.54%
  AnnV+ 7AAD− cell fraction: 11.10%
  AnnV− 7AAD+ cell fraction: 3.78%
  AnnV− 7AAD− cell fraction: 70.58%
AGS cells [4]; [17]
  AnnV+ 7AAD+ cell fraction: 17.83%
  AnnV+ 7AAD− cell fraction: 11.40%
  AnnV− 7AAD+ cell fraction: 4.50%
  AnnV− 7AAD− cell fraction: 66.23%
AGS cells [4]; 400 nM, no TTFields
  AnnV+ 7AAD+ cell fraction: 10.87%
  AnnV+ 7AAD− cell fraction: 6.70%
  AnnV− 7AAD+ cell fraction: 1.83%
  AnnV− 7AAD− cell fraction: 80.60%
AGS cells [4]; [18]
  AnnV+ 7AAD+ cell fraction: 9.00%
  AnnV+ 7AAD− cell fraction: 7.65%
  AnnV− 7AAD+ cell fraction: 0.75%
  AnnV− 7AAD− cell fraction: 82.60%
AGS cells [4]; 200 nuM, no TTFields
  AnnV+ 7AAD+ cell fraction: 7.64%
  AnnV+ 7AAD− cell fraction: 7.00%
  AnnV− 7AAD+ cell fraction: 1.46%
  AnnV− 7AAD− cell fraction: 83.92%
AGS cells [4]; [19]
  AnnV+ 7AAD+ cell fraction: 10.3%
  AnnV+ 7AAD− cell fraction: 7.2%
  AnnV− 7AAD+ cell fraction: 4.4%
  AnnV− 7AAD− cell fraction: 78.2%
AGS cells [4]; [13]
  AnnV+ 7AAD+ cell fraction: 4.6%
  AnnV+ 7AAD− cell fraction: 5.1%
  AnnV− 7AAD+ cell fraction: 0.2%
  AnnV− 7AAD− cell fraction: 90.1%
AGS cells [5]; [20]
  cell count: 62 % from control
AGS cells [5]; 25 nM, no TTFields
  cell count: 88 % from control
AGS cells [5]; [14]
  cell count: 43 % from control
AGS cells [5]; 50 nM, no TTFields
  cell count: 66 % from control
AGS cells [5]; [15]
  cell count: 33 % from control
AGS cells [5]; 100 nM, no TTFields
  cell count: 52 % from control
AGS cells [5]; [16]
  cell count: 21 % from control
AGS cells [5]; 200 nM, no TTFields
  cell count: 39 % from control
AGS cells [5]; [17]
  cell count: 8 % from control
AGS cells [5]; 400 nM, no TTFields
  cell count: 11 % from control
AGS cells [5]; [19]
  cell count: 46 % from control
AGS cells [5]; [13]
  cell count: 78 % from control
KATO III cells [6]; [8]
  colonies count: 46 % from control
KATO III cells [6]; 50 nM, no TTFields
  colonies count: 71 % from control
KATO III cells [6]; [9]
  colonies count: 54 % from control
KATO III cells [6]; 100 nM, no TTFields
  colonies count: 74 % from control
KATO III cells [6]; [10]
  colonies count: 42 % from control
KATO III cells [6]; 200 nM, no TTFields
  colonies count: 70 % from control
KATO III cells [6]; [11]
  colonies count: 17 % from control
KATO III cells [6]; 400 nM, no TTFields
  colonies count: 23 % from control
KATO III cells [6]; Two-way ANOVA P<0.001
  colonies number (clonogenic effect and overall effect), drug + TTFields compared to drug alone: significant reduction in colonies number
AGS cells [7]; [20]
  colonies count: 67 % from control
AGS cells [7]; 25 nM, no TTFields
  colonies count: 91 % from control
AGS cells [7]; [14]
  colonies count: 70 % from control
AGS cells [7]; 50 nM, no TTFields
  colonies count: 92 % from control
AGS cells [7]; [15]
  colonies count: 61 % from control
AGS cells [7]; 100 nM, no TTFields
  colonies count: 97 % from control
AGS cells [7]; [16]
  colonies count: 43 % from control
AGS cells [7]; 200 nM, no TTFields
  colonies count: 77 % from control
AGS cells [7]; [17]
  colonies count: 18 % from control
AGS cells [7]; 400 nM, no TTFields
  colonies count: 36 % from control
AGS cells [7]; [19]
  colonies count: 64 % from control
AGS cells [7]; [13]
  colonies count: 91 % from control
AGS cells [7]; Two-way ANOVA P<0.001
  colonies number (clonogenic effect and overall effect), drug + TTFields compared to drug alone: significant reduction in colonies number
